Data set [1] has as its system pigs at weaning (scour/diarrhea). Kind of data set: Pig trial 2: 240 weaned pigs, weight, health and cleanliness scores. It is filed as in vivo. On the procedure: A further study involving 240 pigs was carried out with a higher dose of lactoperoxidase and potassium iodide. The pigs were weighed and allocated to the trail at weaning (approximately 28 days of age).
The groups were homogenized with respect to group total weight and gender profile, and each group was divided into pens, with 5 pigs per pen. […] The pigs were weighed individually at the start of the study on day 7 and on day 14. Pigs were assessed each morning for general health, faeces was examined—to check for scour/diarrhea, and pigs per give a cleanliness score

In data set [2] the test system is piglets weaned at 28 days (control of E. coli infection). As to the kind of experiment: Pig trial 1: weight gain and feed intake of weaned piglets. It is filed as in vivo, pigs. On the procedure:
A trial was conducted to determine the potential impact of the compositions of the invention for controlling E. coli infection and improving animal health.
Piglets were weaned at 28 days of age with an average weight of 8.6±0.98 kg. At weaning (i.e. no longer suckling), litters were homogenized to a maximum of 14 pigs and assigned to either a control group (no additional feed component), to a first test group to which the composition of the invention was administered, and to a second test group to which zinc oxide was administered. Pigs were fed starter diets up until day 14 of the trial when the trial completed.
Group weight and feed intake was recorded at day 0, 7 and 14 of the experiment.
The composition of the invention comprised: 10 mg LPO and 8 mg KI and excipients. The composition was formulated as a powder. The composition was administered once daily with feed for 14 days. […] Zinc oxide was administered to the second test group at a concentration of 3000 ppm i.e. 3 g/kg of feed.

Data set [3] in a line: Lactoperoxidase ABTS activity (UV-vis). The settings on record: 1000 units = amount of enzyme that oxidises 1 mmol of ABTS in 5 minutes at pH 6.0 and 35° C. It is filed as biochemical. On the procedure:
Lactoperoxidase was isolated from bovine milk. The lactoperoxidase activity (U/mg) was greater than 1000 units ABTS activity (determined using UV-vis). 1000 units ABTS activity (U): amount of enzyme that oxidises 1 mmol of ABTS in 5 minutes at pH 6.0 and 35° C. ABTS: 2,2′-azinobis-(3-ethyl benzthiazoline-6-sulphonic acid).

A further data set deals with mammalian cells. The settings on record: cell culture studies; cited from earlier work.

Turning to `[O]=[Zn]` [zinc oxide], in data set [1] (PC: 3100 ppm ZnO diet, test: 20 mg LPO and 20 mg KI per day, NC diet approximately 0.8 kg less than PC), the “pig weight at the end of the 14 days” value is recorded as “heaviest”. Besides, the cleanliness score result in data set [1] (score 1 (clean) to 4 (heavily contaminated with faecal material), 14 day study) is “lowest cleanliness score”. The Average body weight in data set [2] (Day 0 (baseline at weaning)) is 8.5 kg; in data set [2] (Day 7, Test 1: 10 mg LPO and 8 mg KI daily, Test 2: zinc oxide 3000 ppm in feed), 10.1 kg; in data set [2] (Day 14, Test 1: 10 mg LPO and 8 mg KI daily, Test 2: zinc oxide 3000 ppm in feed), 13.7 kg. In addition, the “Average daily gain day 14” value in data set [2] (piglets weaned at 28 days, Test 1: 10 mg LPO and 8 mg KI powder once daily with feed for 14 days, Test 2: zinc oxide 3000 ppm in feed) amounted to 369 g/day. Also, in data set [2] (piglets weaned at 28 days, Test 1: 10 mg LPO and 8 mg KI powder once daily, Test 2: zinc oxide 3000 ppm in feed), the “Average daily feed intake day 14” value was determined as 455 g/day.
As for Lactoperoxidase, the “lactoperoxidase activity (units ABTS activity)” value in data set [3] is listed as “greater than 1000 U/mg”.
On to `OO` [hydrogen peroxide], for which the cytotoxic concentrations in the data set with mammalian cells was 0.05 to 0.58 mmol/L.
